Source: PubChem BioAssay (NCI)
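Briefly, cells in 96-well plates were exposed to five compound concentrations for 48 h, and endpoints were estimated by linear interpolation. At the GI50, growth is halved. TGI: total growth inhibition.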

How the values were obtained:
Test in all cases: NCI tumour cell line growth inhibition, 48 h
[1] = tested on: MCF7 breast
[2] = tested on: RPMI-8226 leukemia
[3] = tested on: TK-10 renal
[4] = tested on: M14 melanoma
[5] = tested on: HL-60(TB) leukemia
[6] = tested on: SK-MEL-28 melanoma
[7] = tested on: MOLT-4 leukemia
[8] = tested on: U251 CNS
[9] = tested on: A498 renal
[10] = tested on: SF-295 CNS
[11] = tested on: HS 578T breast
[12] = tested on: NCI/ADR-RES ovarian
[13] = tested on: OVCAR-5 ovarian
[14] = tested on: UACC-62 melanoma
[15] = tested on: SR leukemia
[16] = tested on: IGROV1 ovarian
[17] = tested on: NCI-H226 lung
[18] = tested on: LOX IMVI melanoma
[19] = tested on: SK-MEL-2 melanoma
[20] = tested on: CCRF-CEM leukemia
[21] = tested on: OVCAR-3 ovarian
[22] = tested on: CAKI-1 renal
[23] = tested on: NCI-H23 lung
[24] = tested on: 786-0 renal
[25] = tested on: SK-MEL-5 melanoma
[26] = tested on: T-47D breast
[27] = tested on: MDA-MB-231 breast
[28] = tested on: UO-31 renal
[29] = tested on: KM12 colon
[30] = tested on: OVCAR-4 ovarian
[31] = tested on: HCC-2998 colon
[32] = tested on: SW-620 colon
[33] = tested on: SF-268 CNS
[34] = tested on: HCT-116 colon
[35] = tested on: PC-3 prostate
[36] = tested on: BT-549 breast
[37] = tested on: RXF 393 renal
[38] = tested on: OVCAR-8 ovarian
[39] = tested on: SF-539 CNS
[40] = tested on: HCT-15 colon
[41] = tested on: ACHN renal
[42] = tested on: SK-OV-3 ovarian
[43] = tested on: UACC-257 melanoma
[44] = tested on: MDA-MB-435
[45] = tested on: SN12C renal
[46] = tested on: NCI-H522 lung
[47] = tested on: NCI-H460 lung
[48] = tested on: MALME-3M melanoma
[49] = tested on: DU-145 prostate
[50] = tested on: HOP-62 NSCLC
[51] = tested on: SNB-19 CNS
[52] = tested on: COLO 205 colon
[53] = tested on: K-562 leukemia
[54] = tested on: HT29 colon
[55] = tested on: SNB-75 CNS
[56] = tested on: EKVX NSCLC
[57] = tested on: HOP-92 NSCLC
[58] = tested on: A549 NSCLC

CN(C)CCCOc1c2ccc(Cl)cc2nc2c1oc1ccc(Cl)cc12
GI50 [1]: 1.24 µM | TGI [1]: 4.9 µM | GI50 [2]: 1.97 µM | GI50 [3]: 6.62 µM | TGI [3]: 21.1 µM | GI50 [4]: 3.15 µM | TGI [4]: 9.37 µM | GI50 [5]: 2.95 µM | TGI [5]: 15.7 µM | GI50 [6]: 5.09 µM | TGI [6]: 9.67 µM | GI50 [7]: 1.23 µM | TGI [7]: 6.58 µM | GI50 [8]: 3.23 µM | TGI [8]: 12.9 µM | GI50 [9]: 6.44 µM | TGI [9]: 27.7 µM | GI50 [10]: 2.12 µM | TGI [10]: 6.44 µM | GI50 [11]: 1.98 µM | TGI [11]: 9.43 µM | GI50 [12]: 3.72 µM | TGI [12]: 17.7 µM | GI50 [13]: 2.46 µM | TGI [13]: 6.76 µM | GI50 [14]: 4.85 µM | TGI [14]: 10.1 µM | GI50 [15]: 1.18 µM | TGI [15]: 5.33 µM | GI50 [16]: 2.34 µM | TGI [16]: 12.5 µM | GI50 [17]: 1.99 µM | TGI [17]: 8.13 µM | GI50 [18]: 0.857 µM | TGI [18]: 3.56 µM | GI50 [19]: 4.66 µM | TGI [19]: 12.4 µM | GI50 [20]: 2.18 µM | TGI [20]: 14.1 µM | GI50 [21]: 2.43 µM | TGI [21]: 7.57 µM | GI50 [22]: 1.39 µM | TGI [22]: 5.96 µM | GI50 [23]: 3.43 µM | TGI [23]: 15.6 µM | GI50 [24]: 4.12 µM | TGI [24]: 16.1 µM | GI50 [25]: 4.48 µM | TGI [25]: 8.96 µM | GI50 [26]: 12.7 µM | TGI [26]: > 59.1 µM | GI50 [27]: 1.92 µM | TGI [27]: 6.5 µM | GI50 [28]: 1.35 µM | TGI [28]: 11.7 µM | GI50 [29]: 2.22 µM | TGI [29]: 7.52 µM | GI50 [30]: 2.1 µM | TGI [30]: 6.4 µM | GI50 [31]: 4.18 µM | TGI [31]: 15.5 µM | GI50 [32]: 0.9 µM | TGI [32]: 4.36 µM | GI50 [33]: 4.85 µM | TGI [33]: 21.8 µM | GI50 [34]: 3.73 µM | TGI [34]: 23.6 µM | GI50 [35]: 1.69 µM | TGI [35]: 9.2 µM | GI50 [36]: 7.26 µM | TGI [36]: > 30.5 µM | GI50 [37]: 1.8 µM | TGI [37]: 4.88 µM | GI50 [38]: 1.49 µM | TGI [38]: 6.04 µM | GI50 [39]: 3.37 µM | TGI [39]: 13.8 µM | GI50 [40]: 1.35 µM | TGI [40]: 5.41 µM | GI50 [41]: 2.51 µM | TGI [41]: 13.2 µM | GI50 [42]: 3.79 µM | TGI [42]: 15 µM | GI50 [43]: 3.71 µM | TGI [43]: 9.21 µM | GI50 [44]: 2.17 µM | TGI [44]: 6.39 µM | GI50 [45]: 1.46 µM | TGI [45]: 5.55 µM | GI50 [46]: 4.33 µM | TGI [46]: 23.5 µM | GI50 [47]: 1.08 µM | TGI [47]: 3.92 µM | GI50 [48]: 3.24 µM | TGI [48]: 16.2 µM | GI50 [49]: 4.21 µM | TGI [49]: 14.4 µM | GI50 [50]: 3.21 µM | TGI [50]: 22 µM | GI50 [51]: 1.89 µM | TGI [51]: 6.61 µM | GI50 [52]: 1.33 µM | TGI [52]: 7.87 µM | GI50 [53]: 1.05 µM | TGI [53]: 5.07 µM | GI50 [54]: 1.22 µM | TGI [54]: 5.15 µM | GI50 [55]: 1.41 µM | TGI [55]: 6.65 µM | GI50 [56]: 2.46 µM | TGI [56]: 7.3 µM | GI50 [57]: 1.08 µM | TGI [57]: 12.9 µM | GI50 [58]: 2.73 µM | TGI [58]: 11.8 µM
